Legend:
[1] = system: velvetleaf; assay: Test Example 4: herbicidal effect by soil treatment (Table 19, symbol M); type: in vivo, velvetleaf (Abutilon theophrasti); conditions: amount of applied herbicide 320 g/ha
How it was run: (§1)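 Three weeks of greenhouse growth at 25° C. to 30° C. followed a uniform surface spray of water-diluted emulsion at a predetermined herbicide amount. Seeds had been sown beforehand under about 1.5 cm of sterilized diluvial soil. Grading followed criteria set out in an earlier test.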

[2] = system: barnyard grass; assay: Test Example 4: herbicidal effect by soil treatment (Table 19, symbol H); type: in vivo, barnyard grass (Echinochloa crus-galli); conditions: amount of applied herbicide 320 g/ha
How it was run: as §1

[3] = system: redroot pigweed; assay: Test Example 4: herbicidal effect by soil treatment (Table 19, symbol N); type: in vivo, redroot pigweed (Amaranthus retroflexus); conditions: amount of applied herbicide 320 g/ha
How it was run: as §1

[4] = system: persian speedwell; assay: Test Example 4: herbicidal effect by soil treatment (Table 19, symbol R); type: in vivo, Persian speedwell (Veronica persica); conditions: amount of applied herbicide 320 g/ha
How it was run: as §1

[5] = system: southern crabgrass; assay: Test Example 5: herbicidal effect by foliage application, plastic box (Table 20, symbol F); type: in vivo, southern crabgrass (Digitaria ciliaris); conditions: foliage application, 320 g/ha, evaluated three weeks after application
How it was run: (§2)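 Plants sown in sterilized diluvial soil and grown 14 days in a greenhouse at 25° C to 30° C, then sprayed on the foliage with the compound's emulsion diluted in water to a predetermined herbicide amount. Injury to weeds and crops scored three weeks after application on a visual rating scale.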

[6] = system: chickweed; assay: Test Example 4: herbicidal effect by soil treatment (Table 19, symbol P); type: in vivo, common chickweed (Stellaria media); conditions: amount of applied herbicide 320 g/ha
How it was run: as §1

[7] = system: blackgrass; assay: Test Example 5: herbicidal effect by foliage application, plastic box (Table 20, symbol J); type: in vivo, blackgrass (Alopecurus myosuroides); conditions: foliage application, 320 g/ha, evaluated three weeks after application
How it was run: as §2

[8] = system: Italian ryegrass; assay: Test Example 5: herbicidal effect by foliage application, plastic box (Table 20, symbol K); type: in vivo, Italian ryegrass (Lolium multiflorum); conditions: foliage application, 320 g/ha, evaluated three weeks after application
How it was run: as §2

[9] = system: barnyard grass; assay: Test Example 5: herbicidal effect by foliage application, plastic box (Table 20, symbol H); type: in vivo, barnyard grass (Echinochloa crus-galli); conditions: foliage application, 320 g/ha, evaluated three weeks after application
How it was run: as §2

[10] = system: lambsquarters; assay: Test Example 5: herbicidal effect by foliage application, plastic box (Table 20, symbol O); type: in vivo, lambsquarters (Chenopodium album); conditions: foliage application, 320 g/ha, evaluated three weeks after application
How it was run: as §2

[11] = system: chickweed; assay: Test Example 5: herbicidal effect by foliage application, plastic box (Table 20, symbol P); type: in vivo, common chickweed (Stellaria media); conditions: foliage application, 320 g/ha, evaluated three weeks after application
How it was run: as §2

[12] = system: windgrass; assay: Test Example 4: herbicidal effect by soil treatment (Table 19, symbol L); type: in vivo, windgrass (Apera spica-venti); conditions: amount of applied herbicide 320 g/ha
How it was run: as §1

[13] = system: green foxtail; assay: Test Example 4: herbicidal effect by soil treatment (Table 19, symbol G); type: in vivo, green foxtail (Setaria viridis); conditions: amount of applied herbicide 320 g/ha
How it was run: as §1

[14] = system: Italian ryegrass; assay: Test Example 4: herbicidal effect by soil treatment (Table 19, symbol K); type: in vivo, Italian ryegrass (Lolium multiflorum); conditions: amount of applied herbicide 320 g/ha
How it was run: as §1

[15] = system: wild oat; assay: Test Example 4: herbicidal effect by soil treatment (Table 19, symbol I); type: in vivo, wild oat (Avena fatua); conditions: amount of applied herbicide 320 g/ha
How it was run: as §1

[16] = system: green foxtail; assay: Test Example 5: herbicidal effect by foliage application, plastic box (Table 20, symbol G); type: in vivo, green foxtail (Setaria viridis); conditions: foliage application, 320 g/ha, evaluated three weeks after application
How it was run: as §2

[17] = system: oval-leafed pondweed; assay: Test Example 1: herbicidal activity, application before weed generation under submerged conditions (Table 16, symbol C); type: in vivo, oval-leafed pondweed (Monochoria vaginalis); conditions: 320 g/ha applied herbicide
How it was run: (§3)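 Alluvial soil was flooded to 4 cm depth, weed seeds were sown mixed and 2.5-leaf rice seedlings were transplanted. On sowing day, the compound's emulsion, diluted in water to a set dose, was applied to the water surface. Plants grew at 25–30 °C and were scored 0–5 after three weeks.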

[18] = system: Chinese sprangletop; assay: Test Example 3: herbicidal effect by foliage application, Wagner pot (Table 18, symbol D); type: in vivo, chinese sprangletop (Leptochloa chinensis); conditions: amount of applied herbicide 320 g/ha
How it was run: (§4)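 Plants were sown in alluvial soil held under 0.1–0.5 cm standing water and grown 14 days in a greenhouse at 25–30 °C. An emulsifiable formulation, water-diluted to the set dose, was then sprayed onto the foliage, and effects were scored three weeks later using previously defined criteria.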

[19] = system: persian speedwell; assay: Test Example 5: herbicidal effect by foliage application, plastic box (Table 20, symbol R); type: in vivo, Persian speedwell (Veronica persica); conditions: foliage application, 320 g/ha, evaluated three weeks after application
How it was run: as §2

[20] = system: blackgrass; assay: Test Example 4: herbicidal effect by soil treatment (Table 19, symbol J); type: in vivo, blackgrass (Alopecurus myosuroides); conditions: amount of applied herbicide 320 g/ha
How it was run: as §1

[21] = system: false cleavers; assay: Test Example 5: herbicidal effect by foliage application, plastic box (Table 20, symbol Q); type: in vivo, false cleavers (Galium spurium); conditions: foliage application, 320 g/ha, evaluated three weeks after application
How it was run: as §2

[22] = system: wild oat; assay: Test Example 5: herbicidal effect by foliage application, plastic box (Table 20, symbol I); type: in vivo, wild oat (Avena fatua); conditions: foliage application, 320 g/ha, evaluated three weeks after application
How it was run: as §2

[23] = system: false cleavers; assay: Test Example 4: herbicidal effect by soil treatment (Table 19, symbol Q); type: in vivo, false cleavers (Galium spurium); conditions: amount of applied herbicide 320 g/ha
How it was run: as §1

[24] = system: rice flat sedge; assay: Test Example 3: herbicidal effect by foliage application, Wagner pot (Table 18, symbol E); type: in vivo, rice flat sedge (Cyperus iria); conditions: amount of applied herbicide 320 g/ha
How it was run: as §4

[25] = system: velvetleaf; assay: Test Example 5: herbicidal effect by foliage application, plastic box (Table 20, symbol M); type: in vivo, velvetleaf (Abutilon theophrasti); conditions: foliage application, 320 g/ha, evaluated three weeks after application
How it was run: as §2

[26] = system: Japanese bulrush; assay: Test Example 1: herbicidal activity, application before weed generation under submerged conditions (Table 16, symbol B); type: in vivo, Japanese bulrush (Schoenoplectus juncoides); conditions: 320 g/ha applied herbicide
How it was run: as §3

[27] = system: lambsquarters; assay: Test Example 4: herbicidal effect by soil treatment (Table 19, symbol O); type: in vivo, lambsquarters (Chenopodium album); conditions: amount of applied herbicide 320 g/ha
How it was run: as §1

[28] = system: late watergrass; assay: Test Example 1: herbicidal activity, application before weed generation under submerged conditions (Table 16, symbol A); type: in vivo, late watergrass (Echinochloa oryzicola); conditions: 320 g/ha applied herbicide
How it was run: as §3

[29] = system: southern crabgrass; assay: Test Example 4: herbicidal effect by soil treatment (Table 19, symbol F); type: in vivo, southern crabgrass (Digitaria ciliaris); conditions: amount of applied herbicide 320 g/ha
How it was run: as §1

[30] = system: barnyard grass; assay: Test Example 3: herbicidal effect by foliage application, Wagner pot (Table 18, symbol H); type: in vivo, barnyard grass (Echinochloa crus-galli); conditions: amount of applied herbicide 320 g/ha
How it was run: as §4

SMILES: CCCC(=O)Oc1c(C)nn(C)c(=O)c1-c1c(-c2ccc(F)cc2OC)sc2ccc(C)cc12 [2-149]
- M: velvetleaf, herbicidal effect rating [1]: 0 (Herbicidal rate of 5% or less (almost no effect))
- H: barnyard grass, herbicidal effect rating [2]: 0 (Herbicidal rate of 5% or less (almost no effect))
- N: redroot pigweed, herbicidal effect rating [3]: 5 (Herbicidal rate of 90% or more (almost completely withered))
- R: persian speedwell, herbicidal effect rating [4]: 3 (Herbicidal rate of 40% or more and less than 70%)
- herbicidal effect on F: southern crabgrass (criteria 0-5) [5]: 3 (Herbicidal rate of 40% or more and less than 70%)
- P: chickweed, herbicidal effect rating [6]: 3 (Herbicidal rate of 40% or more and less than 70%)
- herbicidal effect on J: blackgrass (criteria 0-5) [7]: 2 (Herbicidal rate of 20% or more and less than 40%)
- herbicidal effect on K: Italian ryegrass (criteria 0-5) [8]: 0 (Herbicidal rate of 5% or less (almost no effect))
- herbicidal effect on H: barnyard grass (criteria 0-5) [9]: 3 (Herbicidal rate of 40% or more and less than 70%)
- herbicidal effect on O: lambsquarters (criteria 0-5) [10]: 4 (Herbicidal rate of 70% or more and less than 90%)
- herbicidal effect on P: chickweed (criteria 0-5) [11]: 5 (Herbicidal rate of 90% or more (almost completely withered))
- L: windgrass, herbicidal effect rating [12]: 0 (Herbicidal rate of 5% or less (almost no effect))
- G: green foxtail, herbicidal effect rating [13]: 4 (Herbicidal rate of 70% or more and less than 90%)
- K: Italian ryegrass, herbicidal effect rating [14]: 0 (Herbicidal rate of 5% or less (almost no effect))
- I: wild oat, herbicidal effect rating [15]: 0 (Herbicidal rate of 5% or less (almost no effect))
- herbicidal effect on G: green foxtail (criteria 0-5) [16]: 5 (Herbicidal rate of 90% or more (almost completely withered))
- Herbicidal effect on C: oval-leafed pondweed (grade 0-5) [17]: 0 (Herbicidal rate of 5% or less (almost no effect))
- herbicidal effect on D: Chinese sprangletop [18]: 0 (Herbicidal rate of 5% or less (almost no effect))
- herbicidal effect on R: persian speedwell (criteria 0-5) [19]: 3 (Herbicidal rate of 40% or more and less than 70%)
- J: blackgrass, herbicidal effect rating [20]: 0 (Herbicidal rate of 5% or less (almost no effect))
- herbicidal effect on Q: false cleavers (criteria 0-5) [21]: 3 (Herbicidal rate of 40% or more and less than 70%)
- herbicidal effect on I: wild oat (criteria 0-5) [22]: 1 (Herbicidal rate of 5% or more and less than 20%)
- Q: false cleavers, herbicidal effect rating [23]: 3 (Herbicidal rate of 40% or more and less than 70%)
- herbicidal effect on E: rice flat sedge [24]: 3 (Herbicidal rate of 40% or more and less than 70%)
- herbicidal effect on M: velvetleaf (criteria 0-5) [25]: 1 (Herbicidal rate of 5% or more and less than 20%)
- Herbicidal effect on B: Japanese bulrush (grade 0-5) [26]: 1 (Herbicidal rate of 5% or more and less than 20%)
- O: lambsquarters, herbicidal effect rating [27]: 4 (Herbicidal rate of 70% or more and less than 90%)
- Herbicidal effect on A: late watergrass (grade 0-5) [28]: 3 (Herbicidal rate of 40% or more and less than 70%)
- F: southern crabgrass, herbicidal effect rating [29]: 0 (Herbicidal rate of 5% or less (almost no effect))
- herbicidal effect on H: barnyard grass [30]: 5 (Herbicidal rate of 90% or more (almost completely withered))
